In data set [1] the target is T1, M1 type muscarinic cholinergic receptor (Rattus norvegicus, UniProt P08482).
T1 construct: crude synaptic membrane specimen prepared from all brains (except cerebellum and brain stem) of rat; from tissue; host or cells: rat brain without cerebellum and brain stem, crude synaptic membranes
T1 sequence (P08482 1-460): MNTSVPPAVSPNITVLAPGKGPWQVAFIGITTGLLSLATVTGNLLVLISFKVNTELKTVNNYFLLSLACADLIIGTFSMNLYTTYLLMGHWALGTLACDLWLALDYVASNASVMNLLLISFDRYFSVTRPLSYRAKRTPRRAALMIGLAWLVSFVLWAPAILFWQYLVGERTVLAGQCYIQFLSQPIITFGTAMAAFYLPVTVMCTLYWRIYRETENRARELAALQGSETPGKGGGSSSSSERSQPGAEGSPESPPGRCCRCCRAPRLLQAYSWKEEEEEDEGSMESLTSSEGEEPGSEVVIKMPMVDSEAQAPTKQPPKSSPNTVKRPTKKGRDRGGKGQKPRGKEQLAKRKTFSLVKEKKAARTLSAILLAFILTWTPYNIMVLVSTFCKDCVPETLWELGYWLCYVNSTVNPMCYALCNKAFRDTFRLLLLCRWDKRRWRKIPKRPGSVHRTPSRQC
The experiment in a line: Radioligand binding to M1 type muscarinic cholinergic receptor ([^3 H]-pirenzepine). Particulars: for IC50: rat brain (except cerebellum and brain stem) crude synaptic membrane, [^3 H]-PZ 1 nM, 60 minutes, 25 °C. How it is done:
1) Radioligand binding experiment to M1 type muscarinic cholinergic receptor
Method: To a crude synaptic membrane specimen prepared from all brains (except cerebellum and brain stem) of rat, [^3 H]-pirenzepine ([^3 H]-PZ, final oncentration: 1 nM) and testing compound were added and the mixture was incubated for 60 minutes at 25 ° C. After stopped the reaction by high-speed suction filtration, the radioactivity on filter was measured with liquid scintillation counter. The specific binding level of [^3 H]-pirenzepine was determined by subtracting the nonspecific binding level in the presence of atropine (1 μM) from total binding level. Putting the [^3 H]-pirenzepine binding in the absence of testing compound on 100, the concentration of compound to decrease by 50 % (IC50 value) was made an index of the binding activity of compound to M1 muscarinic receptor (refer to: J. A. D. M. Toner et al, Life Science, 1987, 40, 1981-1987).

The test system of data set [2] is pirenzepine-induced amnesia. The experiment in a line: Pirenzepine-induced amnesia, step-through type passive avoidance. The conditions noted are these: oral; for Reaction latency Mean ± S.E.: 30 or 60 minutes before acquisition trial, pirenzepine-treated mice; for Improvement rate: pirenzepine-induced amnesia. In kind it is in vivo, Std:ddY strain male mice. An excerpt: Testing on the pirenzepine-induced amnesia
For the experiment animals, Std:ddY strain male mice with body weight of 24 to 34 g (age in week: 5-6) (Nippon SLC) were used. For the device, a step-through type passive avoidance apparatus (made by Ohara Medical Co., Ltd.) consisting of two […] and dark rooms was used. In the acquisition trial, mouse was placed in the light room and, 10 seconds later, the partitive guillotine door was opened. As soon as the mouse moved into the dark room, the guillotine door was closed and electric shock of 41 to 45 V was given for 1 second through the metal grid bars of the floor. The retention trial was conducted 24 hours later since then. […] The induction of amnesia was performed by fixing a mouse at prone position without anesthetization at 20 minutes before learning acquisition trial and injecting pirenzepine (10 μg/2 μl/mouse bilaterally into cerebral ventricles using a microsyringe. Moreover, a group not to administered with pirenzepine before acquisition trial (non-amnesia comparison group) was also provided. The mice were made to be 12 to 21 animals per group and the testing compound was administered orally at 30 or 60 minutes before acquisition trial. The improvement rate was calculate according to following equation and the results are shown in Table 5 (refer to: M. P. Callfield et at, J. Pharm. Pharmacol. 1983, 35, 131-132). [formula]
The extension of the reaction latency with compound therefore means the improved amnesia.

For data set [3], the target named is T2, M2 type muscarinic cholinergic receptor (Rattus norvegicus, UniProt P10980).
T2 construct: crude synaptic membrane specimen was prepared from the brain stem (medulla oblongata-pons) of rat; from tissue; host or cells: rat brain stem (medulla oblongata-pons), crude synaptic membranes
T2 sequence (P10980 1-466): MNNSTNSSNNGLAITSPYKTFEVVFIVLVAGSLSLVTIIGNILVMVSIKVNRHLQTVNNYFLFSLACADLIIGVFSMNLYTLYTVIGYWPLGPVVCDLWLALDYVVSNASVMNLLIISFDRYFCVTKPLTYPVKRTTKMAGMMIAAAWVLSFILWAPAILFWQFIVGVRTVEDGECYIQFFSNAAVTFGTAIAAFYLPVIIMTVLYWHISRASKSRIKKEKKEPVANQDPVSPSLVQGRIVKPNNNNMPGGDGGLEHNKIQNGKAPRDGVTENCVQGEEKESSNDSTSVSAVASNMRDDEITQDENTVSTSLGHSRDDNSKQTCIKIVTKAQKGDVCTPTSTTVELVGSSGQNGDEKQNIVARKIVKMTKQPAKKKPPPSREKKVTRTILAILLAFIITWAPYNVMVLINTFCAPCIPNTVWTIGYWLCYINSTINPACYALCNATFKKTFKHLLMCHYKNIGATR
The experiment in a line: Radioligand binding to M2 type muscarinic cholinergic receptor ([^3 H]-quinuclidyl benzoate). Particulars: rat brain stem crude synaptic membrane, [^3 H]-QNB 0.1 nM.

Data set [4] has as its system Std:ddY strain male mice. The experiment in a line: In vivo toxicity test, oral administration. The conditions noted are these: for common symptoms and death / Convulsion (animals affected) / Death (animals) / dose at which convulsion was observed / dose at which death was observed: 3 days. The procedure: For the experiment animals, 4 animals per group of Std:ddY strain male mice with body weightOf 26 to 30 g (age in week: 5) (Nippon SLC) were used. The testing compound was suspended into 5 % solution of arabic gum and administered orally. The common symptoms and death caused with compound were recorded for 3 days after administration.

Data set [5] concerns M1 and M2 muscarinic receptors. The experiment in a line: Selectivity to M1 receptor (ratio of IC50 values from the M1 and M2 binding experiments). Further details: species or system rat. How it is done: 3) Selectivity to M1 receptor
This was determined from the ratio of IC50 values of compound obtained from the binding experiments of M1 and M2 muscarinic receptors. [formula]

With `O=C1N(c2ccc(F)cc2)CCN1C1CCCN(Cc2ccccc2)C1` (racemic) [Referential example 8, (±)-1-(4-fluorophenyl)-3-[3-(1-phenylmethyl)piperidyl]-2-imidazolidinone], in data set [1], the IC50 (as a rule, the concentration needed to halve the response being measured) is 80 nM. Also, in data set [2] (3 mg/kg), the “Reaction latency Mean ± S.E.” value worked out at 55.1 ± 20.0 s and the Improvement rate is -20.7%. In data set [2] (10 mg/kg), the “Reaction latency Mean ± S.E.” value was 153.7 ± 27.6 s and the Improvement rate is given as 33.2%. The compound also returned an IC50 in data set [3] of 1090 nM. Moreover, in data set [4], the “common symptoms (in words)” value is on record as “convulsive actions were seen”, the “dose at which convulsion was observed” value is 600 mg/kg and the “dose at which death was observed” value amounted to 1200 mg/kg. Further, in data set [4] (300 mg/kg), the “common symptoms and death” value was “None”. Besides, the “Convulsion (animals affected)” value in data set [4] (600 mg/kg) is 3/4. In addition, the “Death (animals)” value in data set [4] (1200 mg/kg) is 4/4.
On to `O=C1N(c2ccc(F)cc2)CCN1[C@@H]1CCCN(Cc2ccccc2)C1` [Example 1, (R)-1-(4-florophenyl)-3-[3-(1-phenylmethyl)piperidyl]-2-imidazolidinone], for which, in data set [1], the “affinity to the central M1 muscarinic receptor (in words)” value was “patent affinity to the central M1 muscarinic receptor”. In addition, the “in vitro muscarine (M1) activity / affinity relative to S form (Referential example 9)” value in data set [1] (compared with S isomer) was “about 120 times”. Besides, in data set [1] (compared with racemic form), the “in vitro muscarine (M1) activity / affinity relative to racemic form (Referential example 8)” value is listed as “about 3 times”. For the same compound, the results for the IC50 in data set [1] and in data set [3] were 30 nM and 500 nM, respectively. For the same compound, the figures for the “Reaction latency Mean ± S.E.” value in data set [2] (3 mg/kg), in data set [2] (10 mg/kg) and in data set [2] (30 mg/kg) were 91.5 ± 21.4 s, 133.0 ± 29.3 s and 166.9 ± 40.2 s, respectively. The Improvement rate is on record as 34.3% in data set [2] (3 mg/kg), 77.9% in data set [2] (10 mg/kg) and 113.6% in data set [2] (30 mg/kg). Also, the “improvement effect on the amnesia / disturbance of learning (in words)” value in data set [2] (listed as R form) is reported as “could be recognized only for R form with significant difference”; in data set [2] (listed as R isomer), “very excellent improvement effect on the amnesia”. The “selectivity to M1 receptor (in words)” value in data set [5] (M1 versus M2 receptor) is recorded as “far higher selectivity to M1 receptor than to M2 receptor”. Further, the “IC50 (M2)/IC50 (M1)” value in data set [5] (ratio of IC50 values, selectivity to M1 receptor) is 16.7. Further, the “common symptoms and death” value was “None” in data set [4] (300 mg/kg); “None” in data set [4] (600 mg/kg); “None” in data set [4] (1200 mg/kg); “problems did not arise at any rate” in data set [4] (1200 mg/kg, listed as R form); “such symptom was not caused even at 1200 mg/kg” in data set [4] (1200 mg/kg, listed as compound of the invention).
`O=C1N(c2ccc(F)cc2)CCN1[C@H]1CCCN(Cc2ccccc2)C1` [Referential example 9, (S)-1-(4-fluorophenyl)-3-[3-(1-phenylmethyl)piperidyl]-2-imidazolidinone] yielded an IC50 in data set [1] of 3700 nM. In addition, in data set [2] (3 mg/kg), the “Reaction latency Mean ± S.E.” value was 63.3 ± 32.1 s and the Improvement rate is listed as -23.5%. In data set [2] (10 mg/kg), the “Reaction latency Mean ± S.E.” value was 61.5 ± 26.5 s and the Improvement rate is -25.0%. For the same compound, in data set [2] (30 mg/kg), the “Reaction latency Mean ± S.E.” value worked out at 113.2 ± 36.2 s and the Improvement rate is 18.1%. In addition, in data set [3], the IC50 was more than 10000 nM. For the same compound, in data set [4], the “common symptoms (in words)” value is on record as “convulsive actions were seen”, the “dose at which convulsion was observed” value is reported as not below 300 mg/kg and the “dose at which death was observed” value is not below 300 mg/kg. For the same compound, in data set [4] (300 mg/kg), the “Convulsion (animals affected)” value is on record as 2/4 and the “Death (animals)” value is recorded as 1/4. Moreover, the “Death (animals)” value in data set [4] (600 mg/kg) is reported as 4/4.
